Tests used:
HL-60 (TB) = assay: NCI in vitro cancer screen, Leukemia; assay type: cell-based, human; conditions: HL-60(TB), Leukemia
MOLT-4 = assay: NCI in vitro cancer screen, Leukemia; assay type: cell-based, human; conditions: MOLT-4, Leukemia
RPMI-8226 = assay: NCI in vitro cancer screen, Leukemia; assay type: cell-based, human; conditions: RPMI-8226, Leukemia
A549/ATCC = assay: NCI in vitro cancer screen, Non-Small Cell Lung Cancer; assay type: cell-based, human; conditions: Non-Small Cell Lung Cancer
EKVX = assay: as above; assay type: cell-based, human; conditions: Non-Small Cell Lung Cancer
HOP-92 = assay: as above; assay type: cell-based, human; conditions: HOP-92, Non-Small Cell Lung Cancer
NCI-H322M = assay: as above; assay type: cell-based, human; conditions: Non-Small Cell Lung Cancer
NCI-H522 = assay: as above; assay type: cell-based, human; conditions: NCI-H522, Non-Small Cell Lung Cancer
COLO 205 = assay: NCI in vitro cancer screen, Colon Cancer; assay type: cell-based, human; conditions: COLO 205, Colon Cancer
HCT-15 = assay: NCI in vitro cancer screen, Colon Cancer; assay type: cell-based, human; conditions: HCT-15, Colon Cancer
HT29 = assay: NCI in vitro cancer screen, Colon Cancer; assay type: cell-based, human; conditions: HT29, Colon Cancer
KM12 = assay: NCI in vitro cancer screen, Colon Cancer; assay type: cell-based, human; conditions: KM12, Colon Cancer
SF-268 = assay: NCI in vitro cancer screen, CNS Cancer; assay type: cell-based, human; conditions: SF-268, CNS Cancer
SF-539 = assay: NCI in vitro cancer screen, CNS Cancer; assay type: cell-based; conditions: SF-539, CNS Cancer
SNB-75 = assay: NCI in vitro cancer screen, CNS Cancer; assay type: cell-based, human; conditions: SNB-75, CNS Cancer
LOX IMVI = assay: NCI in vitro cancer screen, Melanoma; assay type: cell-based, human; conditions: Melanoma
M14 = assay: NCI in vitro cancer screen, Melanoma; assay type: cell-based, human; conditions: M14, Melanoma
SK-MEL-2 = assay: NCI in vitro cancer screen, Melanoma; assay type: cell-based, human; conditions: SK-MEL-2, Melanoma
SK-MEL-28 = assay: NCI in vitro cancer screen, Melanoma; assay type: cell-based, human; conditions: SK-MEL-28, Melanoma
UACC-257 = assay: NCI in vitro cancer screen, Melanoma; assay type: cell-based, human; conditions: UACC-257, Melanoma
OVCAR-4 = assay: NCI in vitro cancer screen, Ovarian Cancer; assay type: cell-based, human; conditions: OVCAR-4, Ovarian Cancer
OVCAR-5 = assay: NCI in vitro cancer screen, Ovarian Cancer; assay type: cell-based, human; conditions: OVCAR-5, Ovarian Cancer
OVCAR-8 = assay: NCI in vitro cancer screen, Ovarian Cancer; assay type: cell-based, human; conditions: OVCAR-8, Ovarian Cancer
A498 = assay: NCI in vitro cancer screen, Renal Cancer; assay type: cell-based, human; conditions: A498, Renal Cancer
RXF-393 = assay: NCI in vitro cancer screen, Renal Cancer; assay type: cell-based, human; conditions: RXF 393, Renal Cancer
SN12C = assay: NCI in vitro cancer screen, Renal Cancer; assay type: cell-based, human; conditions: Renal Cancer
UO-31 = assay: NCI in vitro cancer screen, Renal Cancer; assay type: cell-based, human; conditions: UO-31, Renal Cancer
PC-3 = assay: NCI in vitro cancer screen, Prostate Cancer; assay type: cell-based, human; conditions: PC-3, Prostate Cancer
MCF7 = assay: NCI in vitro cancer screen, Breast Cancer; assay type: cell-based, human; conditions: MCF7, Breast Cancer
[1] = system: MDA-MB-231 (MDA-MB-231/ATCC); assay: NCI in vitro cancer screen, Breast Cancer; assay type: cell-based, human; conditions: MDA-MB-231/ATCC, Breast Cancer
T-47D = assay: NCI in vitro cancer screen, Breast Cancer; assay type: cell-based, human; conditions: Breast Cancer
[2] = Homo sapiens, read-out: LC50 (the source's name)

For `CC(C)=CCOc1cc(O)cc(/C=C/c2ccc(O)c(O)c2)c1CC=C(C)C` [USYDS14, (E)-2-(3-methyl-2-buten-1-yl)-3-(3-methyl-2-butenyloxy)-3′,4′,5-trihydroxystilbene], the TGI (HL-60 (TB)) was 16.3 µM, the GI50 (HL-60 (TB); Homo sapiens) was 4.06 µM and the CC50 (HL-60 (TB); [2]) was > 100 µM. For the same molecule, the GI50 (MOLT-4; Homo sapiens) was 4.03 µM, the CC50 (MOLT-4; [2]) was > 100 µM and the TGI (MOLT-4) was 21 µM. For the same molecule, the GI50 (RPMI-8226; Homo sapiens) was 4.07 µM, the CC50 (RPMI-8226; [2]) was > 100 µM and the TGI (RPMI-8226) was 24.5 µM. It also gave a GI50 (A549/ATCC; Homo sapiens) of 4.33 µM, a CC50 (A549/ATCC; [2]) of 45.5 µM and a TGI (A549/ATCC) of 16.5 µM. The GI50 (EKVX; Homo sapiens) was 6.45 µM, the CC50 (EKVX; [2]) was 51.7 µM and the TGI (EKVX) was 21.2 µM. The TGI (HOP-92) was 7.58 µM, the GI50 (HOP-92; Homo sapiens) was 1.49 µM and the CC50 (HOP-92; [2]) was 32.9 µM. The GI50 (NCI-H322M; Homo sapiens) was 12.5 µM, the LC50 (50% lethal concentration) (NCI-H322M; Homo sapiens) was 52.8 µM and the TGI (NCI-H322M) was 25.7 µM. For the same molecule, the GI50 (NCI-H522; Homo sapiens) was 0.75 µM, the CC50 (NCI-H522; [2]) was 5.85 µM and the TGI (NCI-H522) was 2.26 µM. The TGI (COLO 205) was 28.5 µM, the GI50 (COLO 205; Homo sapiens) was 14.6 µM and the CC50 (COLO 205; [2]) was 55.7 µM. For the same molecule, the TGI (HCT-15) was 10.4 µM, the GI50 (HCT-15; Homo sapiens) was 2.06 µM and the CC50 (HCT-15; [2]) was 43.3 µM. For the same molecule, the TGI (HT29) was 29.1 µM, the GI50 (HT29; Homo sapiens, HT-29) was 14 µM and the CC50 (HT29; Homo sapiens, HT-29, read-out: LC50 (the source's name)) was 60.9 µM. It also gave a GI50 (KM12; Homo sapiens) of 3.74 µM, a CC50 (KM12; [2]) of 57.4 µM and a TGI (KM12) of 14.4 µM. It also gave a GI50 (SF-268; Homo sapiens) of 4.65 µM, a CC50 (SF-268; [2]) of 48.5 µM and a TGI (SF-268) of 17.8 µM. It also gave a GI50 (SF-539; Homo sapiens) of 2.96 µM, a CC50 (SF-539; [2]) of 37.8 µM and a TGI (SF-539) of 10.5 µM. The GI50 (SNB-75; Homo sapiens) was 1.79 µM, the CC50 (SNB-75; [2]) was 29.3 µM and the TGI (SNB-75) was 7.8 µM. It also gave a GI50 (LOX IMVI; Homo sapiens) of 1.36 µM, a CC50 (LOX IMVI; [2]) of 8.35 µM and a TGI (LOX IMVI) of 3.37 µM. For the same molecule, the GI50 (M14; Homo sapiens) was 2.95 µM, the CC50 (M14; [2]) was 50 µM and the TGI (M14) was 13.6 µM. The GI50 (SK-MEL-2; Homo sapiens) was 3.72 µM, the LC50 (SK-MEL-2; Homo sapiens) was 41.2 µM and the TGI (SK-MEL-2) was 12.5 µM. It also gave a GI50 (SK-MEL-28; Homo sapiens) of 3.05 µM, an LC50 (SK-MEL-28; Homo sapiens) of 41.6 µM and a TGI (SK-MEL-28) of 16.4 µM. It also gave a GI50 (UACC-257; Homo sapiens) of 10.2 µM, a CC50 (UACC-257; [2]) of 54 µM and a TGI (UACC-257) of 23.5 µM. It also gave a GI50 (OVCAR-4; Homo sapiens) of 2.98 µM, a CC50 (OVCAR-4; [2]) of 38.6 µM and a TGI (OVCAR-4) of 13.6 µM. For the same molecule, the GI50 (OVCAR-5; Homo sapiens) was 12.4 µM, the CC50 (OVCAR-5; [2]) was 53.6 µM and the TGI (OVCAR-5) was 25.8 µM. The GI50 (OVCAR-8; Homo sapiens) was 3.59 µM, the CC50 (OVCAR-8; [2]) was 64.9 µM and the TGI (OVCAR-8) was 15.6 µM. For the same molecule, the TGI (A498) was 26.6 µM, the GI50 (A498; Homo sapiens) was 13 µM and the CC50 (A498; [2]) was 54.6 µM. For the same molecule, the GI50 (RXF-393; Homo sapiens) was 1.07 µM, the CC50 (RXF-393; [2]) was 14.8 µM and the TGI (RXF-393) was 3.58 µM. The GI50 (SN12C; Homo sapiens) was 3.61 µM, the CC50 (SN12C; [2]) was 42 µM and the TGI (SN12C) was 15.1 µM. It also gave a GI50 (UO-31; Homo sapiens) of 3.71 µM, a CC50 (UO-31; [2]) of 46.3 µM and a TGI (UO-31) of 17.9 µM. The GI50 (PC-3; Homo sapiens) was 6.65 µM, the CC50 (PC-3; [2]) was 55 µM and the TGI (PC-3) was 21.6 µM. For the same molecule, the GI50 (MCF7; Homo sapiens) was 2.74 µM, the CC50 (MCF7; [2]) was 41.9 µM and the TGI (MCF7) was 11.8 µM. It also gave a GI50 ([1]; Homo sapiens) of 3.15 µM, a CC50 [1, 2] of 45.3 µM and a TGI [1] of 14.3 µM. It also gave a TGI (T-47D) of 7.84 µM, a GI50 (T-47D; Homo sapiens, T47D) of 2.71 µM and a CC50 (T-47D; Homo sapiens, T47D, read-out: LC50 (the source's name)) of 61.8 µM.

Source: patent US10696615B2, “Prenylated hydroxystilbenes” (The University of Sydney, priority 2011, dated 2020)
